# What was measured:
# [1] = test system: ovalbumin-induced asthma; test: Ovalbumin-induced asthma, treatment of chronic asthma model (BAL cells, lung histology); type: in vivo, BALB/c mice; details: Mean ± SE
# Procedure: • Twelve-week-old Balb/c mice were administered 10 μg (100 μl) ovalbumin (OVA) dissolved with 3 mg Al(OH)3 in 0.9% saline intraperitoneally (i.p.) on days 0, 7 and 14, and 10 μg (50 μl) OVA intranasally (i.n.) on days 20, 23, 25, 27, 29, 31, 34, 36, 37, 41, 43 and 45. For intranasal administration, mice were anesthetized with inhaled N-flurane and instilled with OVA i.n. with a micropipette. • Three-week-old BALB/c mice were sensitized (×3) with intra-peritoneal (i/p) injection (100 μl OVA solution, containing 0.3 mg OVA and 6.7 mg Al(OH)3, in 1 ml PBS) on days 0, 7 and 14. On days 14, 15, 17, 21 and 23 the mice were further sensitized with intranasal sprinklings (50 μl, each) of OVA in PBS solution containing 2 mg/ml OVA, as following: mice were anesthetized with inhaled N-flurane and instilled with OVA intra-nasally using a micropipette. Twenty-four hours after the last administration of OVA, the mice were sacrificed. Methacholine Challenge and Collection of Histologic Sections and Biochemical Samples
# Either Zn-DFO, Ga-DFO, Zn-DFO and Ga-DFO 1:1 combination (herein metal complexes) or saline were administered as follows: on days −5, −1, 7 and 14, 1 mg/kg body weight metal complexes or saline were administered intraperitoneally (i.p.). On days 0, 6, 8, 13 and 15, 0.3 mg/kg body weight metal complexes or saline were administered i.p. On days 20, 23, 25, 27, 29, 31, 34, 36, 37, 41, 43 and 45, 0.3 mg/kg body weight metal complexes or saline were administered intranasally (i.n.). Twenty-four hours after the last sensitization, mice were anesthetized with urethane and the lungs were lavaged 4 times with 0.5 ml sterile PBS. Animals in the “control” group (non-asthmatic—saline treated, but not sensitized) (n=6) received saline injections and instillations, using the same regime as the asthmatic and treated animals. Animals of the “asthmatic” group (sensitized and saline-treated, rather than complex-treated) (n=6) received saline instead of the respective complex, under the same regime.
# For the treatment of chronic asthma model, a similar experimental protocol was followed, with the following modifications: 1 mg/kg body weight metal complexes or saline were administered i.p. on day 0 (instead of days −5 and −1) and a further 0.3 mg/kg complexes or saline were administered on day 1. In this model, the effects of the complexes were investigated further by histological examination of lung sections stained with either haematoxylin-eosine or PAS/AB (periodic acid-Schiff/alcan blue).
# (§1) To estimate the anti-asthmatic effect of the complexes the following parameters were measured: the concentration of ferritin in the lungs, the presence of inflammatory cells infiltration into the lungs, and the amounts of macrophages, eosinophils, lymphocytes and neutrophils in bronchoalveolar lavages (BALs).
# [2] = test system: ovalbumin-induced asthma; test: Ovalbumin-induced asthma, prophylactic treatment model (lung ferritin); type: in vivo, BALB/c mice; details: asthmatic mice, 1 and 0.3 mg/kg i.p., then 0.3 mg/kg i.n.
# Procedure: Ferritin concentration was quantified using an indirect ‘sandwich’ ELISA assay in accordance with a procedure developed previously in our laboratory. Briefly, ELISA 96-well micro plates were pre-coated with goat anti-human L-ferritin antibody. Rabbit anti-human H-ferritin was used as the secondary antibody. Plates were treated with goat anti-rabbit IgG conjugated with β-galactosidase. Chlorophenol Red-β-D-Galactopyranoside was then added and the plates analyzed using a microplate reader with a test (570 nm) and reference (630 nm) filters.
# • Twelve-week-old Balb/c mice were administered 10 μg (100 μl) ovalbumin (OVA) dissolved with 3 mg Al(OH)3 in 0.9% saline intraperitoneally (i.p.) on days 0, 7 and 14, and 10 μg (50 μl) OVA intranasally (i.n.) on days 20, 23, 25, 27, 29, 31, 34, 36, 37, 41, 43 and 45. […]
# as §1
smiles,measurement,setting,value
"CC(=O)N(O)CCCCCNC(=O)CCC(=O)N([O-])CCCCCNC(=O)CCC(=O)N([O-])CCCCCN.[Zn+2] [Zn-DFO, Zinc-desferrioxamine]",Eosinophils in BAL fluid,[1],0.3 ± 0.05^# 10^4 cells/ml
same,Lymphocytes in BAL fluid,[1],0.2 ± 0.05^# 10^4 cells/ml
same,Macrophages in BAL fluid,[1],3.0 ± 0.2^# 10^4 cells/ml
same,Neutrophils in BAL fluid,[1],0.2 ± 0.05^# 10^4 cells/ml
same,Total WBC in BAL fluid,[1],4.0 ± 0.3^# 10^4 cells/ml
same,lung ferritin level,[2],0.6 ± 0.2 µg/mg

# Source: patent US9770430B2, “Desferrioxamine-metal complexes for the treatment of immune-related disorders” (priority 2009, dated 2017)
